Reference: patent US20020127202A1, “Compounds and compositions for delivering active agents” (Emisphere Technologies, Inc., priority 1996, published 2002)
Read-outs that look alike come from different tables or passages of the source.

Key:
[1] = rat, in vivo, 100 mg/kg
Description: (§1) The delivery agents were reconstituted with distilled water and/or propylene glycol and adjusted to an apparent pH of 7.2-8.0 with either aqueous hydrochloric acid or aqueous sodium hydroxide. A stock solution of parathyroid hormone was prepared by dissolving parathyroid hormone in water. The parathyroid hormone solution was then added to the delivery agent solution. Several different delivery agent to active agent ratios were studied.
(§2) Male Sprague-Dawley rats weighing 200-250 g were fasted for 24 hours and administered ketamine (44 mg/kg) and chlorpromazine (1.5 mg/kg) 15 minutes prior to dosing. The rats were administered one of the dosing solutions described above by oral gavage or intracolonic instillation. Blood samples were collected serially from the tail artery for serum determination of parathyroid hormone concentration. Serum parathyroid hormone concentrations were quantified by a parathyroid hormone radioimmunoassay test kit.
(§3) Oral administration of solutions containing parathyroid hormone (PTH) and the non-α-amino acid delivery agents was tested in vivo in rats.

[2] = Delivery agent enhancement of parathyroid hormone bioavailability in rats (serum PTH radioimmunoassay)
Description: as §1, §2, §3

[3] = Delivery agent enhancement of salmon calcitonin bioavailability, subcutaneous administration in rats (serum calcium); format: in vivo, Male Sprague-Dawley rats; settings: sCT 0.2 μg/kg
[4] = Delivery agent enhancement of rhGH bioavailability, subcutaneous administration in rats
Description: The delivery agents were reconstituted with distilled water and adjusted to pH 7.2-8.0 with either aqueous hydrochloric acid or aqueous sodium hydroxide. A stock solution of rhGH was prepared by mixing rhGH, D-mannitol and glycine and dissolving this mixture in 2% glycerol/water. The stock solution was then added to the delivery agent solution. Several delivery agent to active agent ratios were studied.
Male Sprague-Dawley rats weighing 200-250g were fasted for 24 hours and administered ketamine (44 mg/kg) and chlorpromazine (1.5 mg/kg) 15 minutes prior to dosing. The rats were administered one of the dosing solutions described above by subcutaneous injection, intranasal instillation, or sublingual instillation. Blood samples were collected serially from the tail artery for serum calcium concentration determination or serum rhGH concentrations. The dose of rhGH administered in these experiments was 0.1 mg/kg.
Serum rhGH concentrations were quantified by an rhGH enzyme immunoassay test kit.

[5] = In vivo delivery of heparin by oral administration in rats (APTT)
Description: In a test tube, 900 mg of carrier were dissolved in 3 mL of propylene glycol, and 0.299 g of sodium heparin was dissolved in 3 mL of water. The solutions were mixed by vortex. Sodium hydroxide (10 M) was added to the resulting mixture until a solution was obtained. The pH was then adjusted to 7.4+/−0.5 with concentrated hydrochloric acid, and the final solution was sonicated at for 30 minutes.
A group of fasted, conscious rats were administered the dosing compositions by oral gavage. Blood samples were collected by cardiac puncture following the administration of ketamine (44 mg/kg)., Heparin activity was determined by utilizing the activated partial thromboplastim time (APTT) according to the method of Henry, J. B., Clinical Diagnosis and Management by Laboratory Methods; Philadelphia, Pa.; W B Saunders (1979).
Heparin (100 mg/kg) was administered by oral gavage to rats, and heparin activity was determined according to the procedure of Example 44.

[6] = In vivo delivery of salmon calcitonin in rats (serum calcium)
Description: 400 mg of carrier were added to 2.9 mL of 25% aqueous propylene glycol. The resultant solution was stirred, and the pH was adjusted to 7.2 with sodium hydroxide (1.0 N). Water was added to bring the total volume to […]. […] Calcitonin (10 μg) was added to the solution. The total calcitonin concentration was 2.5 μg/mL.
For each sample a group of fasted rats were anesthetized. The rats were administered the dosing composition by oral gavage, intracolonic instillation, or intraduodenal administration. Blood samples were collected serially from the tail artery. Serum calcium was determined by testing with a Calcium Kit (Sigma Chemical Company, St. Louis, Mo., USA).

[7] = In vivo delivery of interferon α2b by intracolonic administration in rats (ELISA); settings: carrier dose 100 mg/kg, interferon dose 250 μg/kg
Description: Propylene glycol (0-25%) was added as a solubilizing agent, if necessary.
Rats were administered the dosing composition by oral gavage, intraduodenal administration, or intracolonic administration.

[8] = In vivo delivery of rhGH in rats (serum rhGH by ELISA); settings: oral, no carrier (0 mg/kg), rhGH dose 6 mg/kg
Description: Dosing compositions were prepared by mixing the modified amino acids and recombinant human growth hormone (rhGH) as listed in Table 1 below in a phosphate buffer solution at a pH of about 7-8.
Rats were administered the dosing composition by sublingual, oral gavage, intraduodenal administration, or colonic administration. Delivery was evaluated by using an ELISA assay for rhGH from Medix Biotech, Inc. For intracolonic administration, a sample was prepared and dosed to fasted rats at 25 mg/kg of carrier in a buffered solution containing propylene glycol (0-50%) and 1 mg/kg rhGH.

[9] = intracolonic, carrier dose 100 mg/kg, PTH dose 25 μg/kg
[10] = subcutaneous, delivery agent dose 2.5 mg/kg, rhGH 0.1 mg/kg
[11] = subcutaneous, delivery agent dose 1.0 mg/kg, rhGH 0.1 mg/kg
[12] = carrier dose 300 mg/kg, heparin dose 100 mg/kg

In the case of `O=C(O)CCCc1ccc(NC(=O)CCOc2ccccc2)cc1` [CVIII], the “Peak Serum [PTH]” value [1] is reported as 115 ± 20 pg/mL.

For `O=C(O)CCCCCCCNC(=O)c1ccccc1Br` [CXIV], the “Peak Serum [PTH]” value [2, 9] was 65 ± 15 pg/mL and the “Percent Decrease in Serum Calcium” value ([3]; delivery agent dose 20 μg/kg) was 20 ± 3%.

In the case of `O=C(O)CCCCCCNC(=O)c1ccccc1O` [CXI], the “Peak Serum [rhGH]” value [4, 10] is reported as 16 ± 2 ng/mL and the “Percent Decrease in Serum Calcium” value ([3]; delivery agent dose 20 μg/kg) is reported as 21 ± 4%.

With `O=C(O)CCCCCCCNC(=O)c1ccccc1O` [CXXIII] the “Peak Serum [PTH]” value [2, 9] was 130 ± 20 pg/mL, the “Peak Serum [PTH]” value ([2]; oral, carrier dose 250 mg/kg, PTH dose 25 μg/kg) was 20 ± 6 pg/mL and the “Peak Serum [PTH]” value ([2]; oral, carrier dose 250 mg/kg, PTH dose 100 μg/kg) was 75 ± 25 pg/mL. The “Peak Serum [rhGH]” value [4, 11] was 22 ± 3 ng/mL, the “Peak Serum [rhGH]” value [4, 10] was 25 ± 5 ng/mL and the “Peak Serum [rhGH]” value ([4]; subcutaneous, delivery agent dose 25 mg/kg, rhGH 0.1 mg/kg) was 30 ± 6 ng/mL. For the same compound, the “Percent Decrease in Serum Calcium” value ([3]; delivery agent dose 2 μg/kg) was 17 ± 3%, the “Percent Decrease in Serum Calcium” value ([3]; delivery agent dose 20 μg/kg) was 25 ± 4% and the “Percent Decrease in Serum Calcium” value ([3]; delivery agent dose 200 μg/kg) was 25 ± 5%. The “Percent Decrease in Serum Calcium” value ([3]; delivery agent dose 2000 μg/kg) was 26 ± 5%.

In the case of `O=C(O)CCCCCCCNC(=O)c1cccc([N+](=O)[O-])c1` [Compound CXV], the “Peak Serum [rhGH]” value [4, 11] is reported as 25 ± 3 ng/mL.

In the case of `CCC(C(=O)NCCCC(=O)O)C1CCCCC1` (stereo not shown) [Compound III], the “Mean Peak APTT” value [5, 12] is reported as 38.64 ± 17 s.

In the case of `O=C(O)CCCNC(=O)C1CCCCCC1` [Compound II], the “Mean Peak APTT” value [5, 12] is reported as 25.45 ± 2.8 s.

For `COc1ccccc1/C=C/C(=O)Nc1ccc(CCC(=O)O)cc1` [Compound LXXXVI], the “Peak Serum [PTH]” value [1] was 40 ± 12 pg/mL.

In the case of `O=C(O)CCCNC(=O)C1CCCCC1` [Compound V], the “Mean Peak APTT” value [5, 12] is reported as 87.4 ± 34.1 s and the “Maximum Decrease in Serum Calcium” value ([6]; oral, carrier dose 400 mg/kg, calcitonin dose 10 μg/kg) is reported as 18.35 +/− 2.87 % below baseline.

In the case of `O=C(O)CCCCCCCNC(=O)c1ccccc1O` [Compound XIX], the “Mean Peak APTT” value [5, 12] is reported as 119.99 ± 56.3 s, the “Maximum Decrease in Serum Calcium” value ([6]; intracolonic, carrier dose 10 mg/kg, calcitonin dose 3 μg/kg) is reported as 26.49 +/− 12.3 % below baseline and the “Maximum Decrease in Serum Calcium” value ([6]; oral, carrier dose 200 mg/kg, calcitonin dose 7.5 μg/kg) is reported as 25.48 +/− 4.7 % below baseline.

In the case of `O=C(O)CCCCCCCNC(=O)/C=C/c1ccccc1O` [Compound XXI], the “Mean Peak Serum Levels of Interferon” value [7] is reported as 4238 ± 2789 pg/mL.

In the case of `O=C(O)CCCCCCCCCNC(=O)c1ccccc1O` [Compound XXXI], the “Mean Peak APTT” value ([5]; carrier dose 50 mg/kg, heparin dose 10 mg/kg) is reported as 50.85 ± 9.1 s and the “Mean Peak APTT” value ([5]; carrier dose 50 mg/kg, heparin dose 25 mg/kg) is reported as 127.56 ± 22.97 s.

With `CN(C)c1cccc(C(=O)Nc2ccc(CCCC(=O)O)cc2)c1` [LVIII] the “Peak Serum [PTH]” value [1] was 145 ± 25 pg/mL.

With `COc1ccccc1/C=C/C(=O)Nc1ccc(CCCC(=O)O)cc1` [LXXXIX] the “Peak Serum [PTH]” value [1] was 70 ± 15 pg/mL.

In the case of “rhGH: recombinant human growth hormone, active agent dosed alone (Comparative Examples 5A, 16A)”, the “Mean Peak Serum Levels of rhGH” value [8] is reported as <10 ± 10 ng/mL and the “Peak Serum [rhGH]” value ([4]; no delivery agent (0.0 mg/kg), rhGH alone) is reported as 4 ± 2 ng/mL.
